The values below come from publication PMC5478869, “New Hydroxycinnamic Acid Esters as Novel 5-Lipoxygenase Inhibitors That Affect Leukotriene Biosynthesis” (Mediators of Inflammation, 2017).

Entries after “also recorded” stand apart in the source; their conditions may differ.

Series [1] deals with T1, 5-LO (Homo sapiens, UniProt P09917).
T1 sequence (P09917 1-674): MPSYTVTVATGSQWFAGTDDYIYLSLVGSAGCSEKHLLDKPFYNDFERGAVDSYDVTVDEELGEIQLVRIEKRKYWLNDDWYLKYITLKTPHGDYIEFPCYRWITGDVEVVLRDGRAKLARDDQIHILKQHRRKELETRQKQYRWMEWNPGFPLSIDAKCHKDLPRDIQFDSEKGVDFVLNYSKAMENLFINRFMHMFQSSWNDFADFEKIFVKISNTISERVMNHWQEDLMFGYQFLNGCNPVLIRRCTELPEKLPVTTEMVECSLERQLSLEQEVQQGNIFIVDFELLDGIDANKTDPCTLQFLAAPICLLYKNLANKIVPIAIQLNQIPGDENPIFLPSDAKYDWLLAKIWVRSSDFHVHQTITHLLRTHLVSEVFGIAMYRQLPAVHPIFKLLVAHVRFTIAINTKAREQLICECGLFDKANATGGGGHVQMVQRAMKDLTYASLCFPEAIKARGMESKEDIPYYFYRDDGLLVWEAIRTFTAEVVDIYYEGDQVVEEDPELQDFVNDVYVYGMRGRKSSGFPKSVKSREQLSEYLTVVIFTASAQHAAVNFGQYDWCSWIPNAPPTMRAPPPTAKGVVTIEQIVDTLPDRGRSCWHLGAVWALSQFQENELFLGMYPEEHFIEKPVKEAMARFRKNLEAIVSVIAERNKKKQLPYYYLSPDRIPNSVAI
Kind of series: Biosynthesis of 5-LO products in HEK293 cells expressing 5-LO and FLAP (A23187 + arachidonic acid). Also noted: expressed in transfected cells; host or cells: HEK293. The format is cell-based. Particulars: 1 μM compound, 10 μM A23187 + 10 μM arachidonic acid, 15 min. Here is the method:
HEK293 cells expressing both 5-LO and the 5-lipoxygenase activating protein (FLAP) were generated as previously reported. For cell stimulation of 5-LO products, transfected HEK293 cells were collected following trypsinization and washed and the cell pellet was resuspended in Hank's balanced salt solution (HBSS, Lonza) containing 1.6 mM CaCl2 at a concentration of 5 × 10^5 cells/ml. Cells were preincubated with each compound at the indicated concentration for 5 min at 37°C. Cells were then stimulated for 15 minutes at 37°C with the addition of 10 μM calcium ionophore A23187 (Sigma-Aldrich) and 10 μM arachidonic acid (Cayman Chemical). Stimulations were stopped by adding 0.5 volume of cold MeOH:MeCN (1 : 1) containing 100 ng/ml of 19-OH prostaglandin B2 (PGB2) as internal standard. Samples were then processed and 5-LO products were analyzed by reversed-phase high-performance liquid chromatography (RP-HPLC) as described previously.
To evaluate CAPE analogues as potential inhibitors of the biosynthesis of 5-LO products, a first series of experiments was performed in HEK293 cells expressing both 5-LO and FLAP as previously described. HEK293 cells were first preincubated with the test compounds (1 μM), then stimulated in the presence of arachidonic acid and calcium ionophore A23187 to induce the biosynthesis of 5-LO products (Figure 2(a)). […] Based on these criteria, compounds 9, 13, 14, 15, 16, and 19 were selected for subsequent analyses.
Figure 2 Effect of the test compounds on the biosynthesis of 5-LO products in transfected HEK293 cells (a) and thapsigargin-stimulated PMNL (b). (a) HEK293 cells expressing both 5-LO and FLAP were incubated in presence of the indicated compounds (1 μM) or their diluent (control, 0.5% DMSO) for 5 min, then biosynthesis of 5-LO products was initiated with the addition of 10 μM calcium ionophore A23187 and 10 μM arachidonic acid for 15 min. After stimulation, reactions were stopped and samples were processed for analysis of 5-LO products by RP-HPLC. Total 5-LO products measured represent the sum of LTB4, its trans isomers, and 5-hydroxyeicosatetraenoic acid. (b) Freshly isolated human PMNL were incubated in presence of test compounds (or their diluent control, DMSO 0.5%) at the indicated concentrations for 5 min. Biosynthesis of the 5-LO products was initiated with the addition of 1 μM of thapsigargin, followed by a 15 min incubation period at 37°C. The stimulation was then stopped and samples were processed for RP-HPLC analysis and total 5-LO products quantification. Total 5-LO products measured represent the sum of LTB4, its trans isomers, 20-COOH- and 20-OH-LTB4 and 5-hydroxyeicosatetraenoic acid. Data are expressed as means ± SEM of at least 3 independent experiments. ^∗Different from control, as determined by one-way ANOVA with Dunnett's multiple comparison test (p < 0.05).

In series [2] the test system is arachidonic acid release. To be noted: cited from earlier work.
Series [3] deals with PMNL. Kind of series: Annexin V labelling of PMNL (early apoptosis). In kind it is cell-based, human. To be noted: 20 min incubation at 37°C. From the text: A positive control with 10% EtOH is shown to validate the assay.

Consider `C=C(C)CCOC(=O)/C=C/c1ccc(O)c(O)c1` [Compound 9], for which the “Inhibition of biosynthesis of 5-LO products in transfected HEK293 cells” value (shortened to “Inhibition … in transfected HEK293 cells”) in series [1] was “showed similar or better inhibitory activity than the reference compound CAPE (2), or decreased the biosynthesis of 5-LO products by more than 50%; also recorded: best inhibitory activity amongst the compounds from the aliphatic series”.
`O=C(/C=C/c1ccc(O)c(O)c1)OCCc1ccccc1` [CAPE (2), Caffeic acid phenethyl ester, reference compound]: the “Inhibition of liberation of cellular arachidonic acid (previously shown)” value in series [2] was “previously shown to inhibit the liberation of cellular arachidonic acid”. In addition, the “Inhibition … in transfected HEK293 cells” value in series [1] is “significantly inhibited the biosynthesis of 5-LO products”.
As to `O=C(/C=C/c1ccc(O)c(O)c1)OCCc1ccc(F)cc1` [Compound 14], in series [1], the “Inhibition … in transfected HEK293 cells” value was “showed similar or better inhibitory activity than the reference compound CAPE (2), or decreased the biosynthesis of 5-LO products by more than 50%”.
Same read-out and setting: as for `COc1ccc(CCOC(=O)/C=C/c2ccc(O)c(O)c2)cc1` [Compound 16], the entry is “showed similar or better inhibitory activity than the reference compound CAPE (2), or decreased the biosynthesis of 5-LO products by more than 50%”; as for `Cc1ccc(CCOC(=O)/C=C/c2ccc(O)c(O)c2)cc1` [Compound 15], “showed similar or better inhibitory activity than the reference compound CAPE (2), or decreased the biosynthesis of 5-LO products by more than 50%”.
Take `O=C(/C=C/c1ccc(O)c(O)c1)OCCCc1ccccc1` [Compound 13]: in series [3], the “Induction of early apoptosis of PMNL (annexin V labelling)” value was “did not induce early apoptosis of PMNL”. In series [1], the “Inhibition … in transfected HEK293 cells” value is “showed similar or better inhibitory activity than the reference compound CAPE (2), or decreased the biosynthesis of 5-LO products by more than 50%”.
For `O=C(/C=C/c1ccc(O)c(O)c1)OCC(c1ccccc1)c1ccccc1` [Compound 19], the “Inhibition … in transfected HEK293 cells” value in series [1] is listed as “showed similar or better inhibitory activity than the reference compound CAPE (2), or decreased the biosynthesis of 5-LO products by more than 50%”.
